Test results published in patent US20230067064A1, “METHODS AND COMPOSITIONS FOR MODULATING SPLICING” (SkyHawk Therapeutics, Inc., priority 2019, published 2023).
Like-named read-outs stand apart in the source and are kept apart here.

How the values were obtained:
[1] = tested on: MDR1-MDCK cell monolayers; assay: MDCK-MDR1 permeability assay, blood-brain-barrier (BBB) penetration potential; type: in vitro ADME; conditions: for General MDCK-MDR1: % Recov A-B: A-B direction; for General MDCK-MDR1: % Recov B-A: B-A direction; for General MDCK-MDR1: Efflux: efflux ratio
Procedure: Each determination is performed in duplicate. […] Analytical conditions are outlined below.
Papp=(dCr/dt)×Vr/(A×CA) (1)

SMN protein = SMN protein assay, Mesoscale Discovery (MSD); type: cell-based, human; conditions: SMA patient fibroblasts (GM03813), 48 hours, average, read-out: SMN2 Potency - Protein: Protein FL EC50 (average)
Procedure: Compounds are tested on spinal muscular atrophy (SMA) patient fibroblasts (GM03813, Coriell) at doses ranging from 2.5 μM to 0.6 nM. 7000 cells/well are seeded in 96-well plates. Compounds are incubated for 48 hours and the cells were lysed with 100 μL of lysis buffer. 20 μL of lysate is used for SMN protein measurement by Mesoscale Discovery (MSD) assay developed by PharmOptima (Michigan). A standard curve prepared with SMN protein ranging from 1 μg/ml to 19.5 pg/ml is used in each MSD plate to calculate the absolute SMN protein amount in each sample.

mHTT protein = mHTT protein assay, 2B7-MW1 Mesoscale Discovery (MSD); type: cell-based, human; conditions: GM04724 lymphoblast cells, 48 hours, 2B7-MW1 MSD; average; read-out: HTT Potency - Protein & Cytotoxicity: EC50 mHTT (average)
Procedure: Compounds are tested on GM04724 (CAG 70/20) Huntington's disease patient lymphoblast cells at doses ranging from 10 μM to 0.6 nM. 4,500 cells/well are seeded in 384 well plates. One plate replica is carried out for parallel viability testing by CellTiter Glo (CTG). Compounds are incubated for 48 hours. mHTT protein levels are assessed by the 2B7-MW1 assay via Mesoscale Discovery (MSD) as previously reported (Macdonald et al., 2014). The antibody pair is comprised of previously characterized monoclonals (2B7 and MW1) interrogating two regions for HTT conformation and biological properties: the N17 domain and the polyQ domain (Baldo et al., 2012; Ko et., 2001). 2B7-MW1 is dependent on subject/animal specific levels of HTT at the time of treatment. 2B7-MW1 is dependent on polyQ expansion (e.g., the higher the expansion the higher the signal) and on mHTT size (e.g., a similar polyQ will give higher signal with smaller HTT size). The viability readout is carried out by CTG according to the manufacturer's instructions. The results are show in Table A-10.

[2] = tested on: cryptic exon within intron 49 of the Huntingtin (HTT) transcripts, GM04724 (CAG 70/20) Huntington's disease patient lymphoblasts; assay: Quantitative splicing assay (HTT); type: cell-based, human; conditions: average
Procedure: GM04724 (CAG 70/20) Huntington's disease patient lymphoblasts (Coriell) are plated in 96-well v-bottom plates at 50,000 cells/well. Immediately after plating, cells are dosed with compound for 24 h at concentrations ranging from 2.5 uM to 0.15 nM (0.1% DMSO). Treated cells are lysed and cDNA synthesized using the Fast Advanced Cells-to-Ct kit (Thermofisher A35378) according to the manufacturer's instructions. 2 uL of each cDNA are used in qPCR reactions to confirm the compound-induced inclusion of a cryptic exon within intron 49 of the Huntingtin (HTT) transcripts. The qPCR reactions are prepared in 384-well plates in 10 uL volume, using TaqMan™ Fast Advanced Master Mix [ThermoFisher; 4444965] with primers and probes shown in the table below. Reactions are run in a Quant Studio 6 qPCR instrument with default settings.

[3] = tested on: SMN FL and SMN Δ7 mRNA, spinal muscular atrophy (SMA) patient fibroblasts (GM03813); assay: Quantitative splicing assay (SMN); type: cell-based, human; conditions: 24 h, average; for IC50: read-out: SMN2 Potency - Splicing: Splicing D7 IC50 (average); for EC50: read-out: SMN2 Potency - Splicing: Splicing FL EC50 (average)
Procedure: Spinal muscular atrophy (SMA) patient fibroblasts (GM03813, Coriell) are plated in 96-well plates at 50,000 cells/well. […] Treated cells are lysed and cDNA synthesized using the Fast Advanced Cells-to-Ct kit (Thermofisher A35378) according to the manufacturer's instructions. 2 μL of each cDNA are used in qPCR reactions. […] Reactions are run in a Quant Studio 6 qPCR instrument with default settings.

[4] = read-out: HTT Potency - Splicing: E49-50 EC50 (average)
[5] = read-out: HTT Potency - Splicing: E49b EC50 (average)

SMILES	General MDCK-MDR1: % Recov A-B [1]	General MDCK-MDR1: % Recov B-A [1]	General MDCK-MDR1: Efflux [1]	EC50 (SMN protein)	EC50 (mHTT protein)	EC50 [2, 4]	EC50 [2, 5]	IC50 [3]	EC50 [3]
C[C@]12CC[C@H](C[C@@H](Oc3ccc(-c4ccc(-n5ccnc5)cc4O)nn3)C1)N2 (single isomer, unassigned; ent1) [303-Ent1]	90%	90%	40	0.01 to 15 nM	0.01 to 15 nM	16 to 50 nM	16 to 50 nM	16 to 50 nM	101 to 500 nM
CN(c1ccc(-c2ccc(-n3ccnc3)cc2O)nn1)[C@@H]1C[C@H]2CC[C@@](C)(C1)N2 (single isomer, unassigned; ent1) [304-Ent1]	94%	90%	137	0.01 to 15 nM	0.01 to 15 nM	0.01 to 15 nM	0.01 to 15 nM	–	–
C[C@]12CC[C@H](C[C@@H](Oc3ccc(-c4ccc(-c5cn[nH]c5)cc4O)nn3)C1)N2 (single isomer, unassigned; ent1) [309-Ent1]	93%	93%	68	0.01 to 15 nM	0.01 to 15 nM	0.01 to 15 nM	0.01 to 15 nM	0.01 to 15 nM	–
COc1cc(-c2ccc(-c3ccc(N(C)[C@@H]4C[C@H]5CC[C@@](C)(C4)N5)nn3)c(O)c2)cnn1 (single isomer, unassigned; ent1) [310-Ent1]	94%	89%	130	501 to 10000 nM	0.01 to 15 nM	–	–	–	–
COc1cc(-c2ccc(-c3ccc(N(C)[C@@H]4C[C@H]5CCC[C@@](C)(C4)N5)nn3)c(O)c2)cnn1 (single isomer, unassigned; ent1) [311-Ent1]	93%	96%	180	16 to 50 nM	0.01 to 15 nM	–	–	–	–
COCC12CCC(CC(N(C)c3ccc(-c4cc(F)c(-n5ccnc5)cc4O)nn3)C1)N2 (single isomer, unassigned; ent1) [315-Ent1]	109%	108%	103	0.01 to 15 nM	0.01 to 15 nM	0.01 to 15 nM	0.01 to 15 nM	0.01 to 15 nM	0.01 to 15 nM
COCC12CCCC(CC(Oc3ccc(-c4ccc(-c5cnn(C)c5)cc4O)nn3)C1)N2 (single isomer, unassigned; ent1) [316-Ent1]	84%	96%	43	0.01 to 15 nM	0.01 to 15 nM	16 to 50 nM	16 to 50 nM	16 to 50 nM	51 to 100 nM
CN(c1ccc(-c2ccc(-c3cnn(C)c3)cc2O)nn1)C1CC2CCC(C)(N2)C1F (single isomer, unassigned; ent1) [317-Ent1]	73%	98%	17	0.01 to 15 nM	0.01 to 15 nM	0.01 to 15 nM	0.01 to 15 nM	0.01 to 15 nM	0.01 to 15 nM
CC12CCC(CC(Oc3ccc(-c4ccc(-n5ccnc5)cc4O)nn3)C1)N2 (single isomer, unassigned; ent2) [303-Ent2]	86%	88%	62	0.01 to 15 nM	0.01 to 15 nM	0.01 to 15 nM	0.01 to 15 nM	16 to 50 nM	16 to 50 nM
CN(c1ccc(-c2ccc(-n3ccnc3)cc2O)nn1)C1CC2CCC(C)(C1)N2 (single isomer, unassigned; ent2) [304-Ent2]	87%	83%	109	0.01 to 15 nM	0.01 to 15 nM	0.01 to 15 nM	0.01 to 15 nM	–	–
